Patent EP4786487A1, “PEPTIDE” (Peptidream Inc, priority 2023, dated 2025)
Like-named read-outs stand apart in the source and are kept apart here. Starred links: 1 amine or outer side, 2 acyl side, 3 side chain; linkers in the order of their positions; H or OH if unused. Positions of bridges follow the written chain, without caps; N, C: chain ends. Non-standard residues stand in square brackets, D forms with d. Residues, ends and D or L forms follow the SMILES beside them. *: point of attachment. Phe(3-OCH2COOH) = N[C@@H](Cc1cccc(OCC(=O)O)c1)C(=O)O; Piperidine(4-CH2CH2CONH2) = NC(=O)CCC1CCN(*)CC1; Trp(6-OH) = N[C@@H](Cc1c[nH]c2cc(O)ccc12)C(=O)O; Phe(4-COOH) = N[C@@H](Cc1ccc(C(=O)O)cc1)C(=O)O; Trp(7-aza) = N[C@@H](Cc1c[nH]c2ncccc12)C(=O)O; Gly(decyl) = CCCCCCCCCC[C@H](N)C(=O)O; Gly(N(CH2)3COOH) = O=C(O)CCCNCC(=O)O; Gly(octyl) = CCCCCCCC[C@H](N)C(=O)O; X1 = CCCCCCC[C@H](N[*:1])C(=O)[*:2]; Gly(N-(CH2)3OMe) = COCCCNCC(=O)O; NMeF = CN[C@@H](Cc1ccccc1)C(=O)O; 4Pal = N[C@@H](Cc1ccncc1)C(=O)O; NMeE = CN[C@@H](CCC(=O)O)C(=O)O; NMeA = CN[C@@H](C)C(=O)O; NEtG = CCNCC(=O)O; Sar = CNCC(=O)O

How the values were obtained:
Type in all cases: cell-based
GDF-11 = molecular target: T1, GDF-11 (Homo sapiens, UniProt O95390); assay: Reporter gene assay for myostatin signaling in HepG2 cell line, Evaluation Procedure (1), GDF-11 inhibition; details: read-out: IC50 (Luciferase) GDF-11 HepG2
T1 construct: purchased R&D systems 1958-GD-G8/CF
T1 sequence (O95390 299-407): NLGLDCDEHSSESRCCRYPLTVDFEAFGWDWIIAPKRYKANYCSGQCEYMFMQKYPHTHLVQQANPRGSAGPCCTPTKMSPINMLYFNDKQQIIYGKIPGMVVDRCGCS
Procedure: (§1) In this Example, the in vitro myostatin inhibitory effects of the peptides synthesized in Examples 1 and 2 were evaluated using a reporter gene assay for myostatin signaling in HepG2 cell line.
(§2) HepG2 cell line (HB-8065, ATCC) cultured in EMEM (055-08975, WAKO Industries) containing 10% FBS (10270106, Gibco) and 50 µg/mL gentamicin (11980-14, Nacalai Tesque) was seeded in 96-well plates (167008, Thermo) at 2.0 × 10^4 cells/well and incubated in a CO2 incubator (37°C, 5% CO2) for 24 hours. The pGL3(CAGA)12-luc plasmid, namely a pGL3 vector (E1751, Promega) having a luciferase gene inserted downstream of a promoter sequence with 12 CAGA repeats attached, was added to the wells along with a transfection reagent (X-treamGENE9 DNA Transfection Reagent, 6365809001, Roche) at a concentration of 0.04 µg/well. The cell line was cultured in a CO2 incubator (37°C, 5% CO2) for 24 hours for transfection. The medium was discarded and replaced with EMEM containing 50 µL/well of 0.1% bovine serum albumin (A7030, Sigma) and 50 µg/mL gentamicin, and incubated in a CO2 incubator (37°C, 5% CO2) for 2 hours.
(§3) Myostatin (788-G8/C, R&D systems) or GDF-11 (1958-GD-G8/CF, R&D systems) was added so that the final concentrations were those listed in Table 5.
(§4) A 4-fold dilution series of various peptides synthesized in Examples 1 and 2 was added to achieve 0.006-100 nmol/L (myostatin inhibition) and 0.12-2000 nmol/L (GDF-11 inhibition). At this time, blank wells, in which neither myostatin, GDF-11, nor each peptide was added, were also prepared and incubated in a CO2 incubator (37°C, 5% CO2) for 20 to 24 hours.
(§5) The medium containing the cells was removed, and a mixture containing PBS (14190144, Thermo) and a chromogenic substrate One-Glo Luciferase Assay System (E6120, Promega) at a ratio of 1:1 was added to each well at 100 µL/well. This was stirred with a plate shaker for 5 min and transferred to a 384-well plate (3570, Corning) at a volume of 20 µL/well.
(§6) The plate was centrifuged at 1,000 × g for 1 min and the luminescence signal (700 nm luminescence) was measured using a plate reader (Envision 2104, PerkinElmer). Based on the measured values, IC50 values of the peptides were calculated using software (Prism 9, GraphPad). […]
(§7) In this Example, the in vitro myostatin inhibitory effects of the peptides synthesized in Examples 10 and 11 were evaluated according to the Evaluation Procedure (1) in Example 3.

Myostatin [1] = assay: Reporter gene assay for myostatin signaling in HepG2 cell line, Evaluation Procedure (1), myostatin inhibition; details: GDF-11 IC50 versus Myostatin IC50
Procedure: as §1, §2, §3, §4, §5, §6, §7

Myostatin [2] = molecular target: T2, Myostatin (Homo sapiens, UniProt O14793); assay: as above; details: read-out: IC50 (Luciferase) Myostatin HepG2
T2 construct: active myostatin (also called mature myostatin) is a homodimer consisting of two C-terminal growth factor domains; purchased R&D systems 788-G8/CF
T2 sequence (O14793 267-375): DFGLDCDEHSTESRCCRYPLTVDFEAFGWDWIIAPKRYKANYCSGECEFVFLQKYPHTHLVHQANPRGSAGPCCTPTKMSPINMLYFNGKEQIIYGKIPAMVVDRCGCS
Procedure: as §1, §2, §3, §4, §5, §6, §7

Row | Compound | IC50 (GDF-11; Method A: GDF-11 10 ng/mL) [nM] | Selectivity (Myostatin [1]; Method A) | IC50 (Myostatin [2]; Method A: Myostatin 10 ng/mL) [nM] | other results
1 | CC[C@H](C)[C@@H]1NC(=O)[C@H](Cc2ccccc2)N(C)C(=O)[C@H](Cc2ccc(O)cc2)NC(=O)[C@H](Cc2c[nH]c3ccccc23)NC(=O)[C@H](C)NC(=O)CN(CCCC(=O)O)C(=O)CSC[C@H](C(=O)O)NC(=O)[C@H](Cc2ccccc2)N(C)C(=O)[C@H](C)N(C)C(=O)[C@H](CC(C)C)NC(=O)[C@H](Cc2ccccc2)N(C)C(=O)[C@H](CCCNC(=N)N)NC(=O)[C@H](Cc2ccc(C(=O)O)cc2)NC(=O)[C@H](Cc2cccc(OCC(=O)O)c2)NC(=O)[C@H](C)N(C)C1=O [Myostatin_99_v144] ({CH2CO}-[Gly(N(CH2)3COOH)]AWY[NMeF]I[NMeA][Phe(3-OCH2COOH)][Phe(4-COOH)]R[NMeF]L[NMeA][NMeF][dC]-OH; thioether N-15) | 2760 | 169 | 16.3 | –
2 | CCCCCCCC[C@@H]1NC(=O)[C@H](Cc2ccccc2)N(C)C(=O)[C@H](CCCNC(=N)N)NC(=O)[C@H](Cc2ccc(OC)cc2)NC(=O)[C@H](Cc2cccc(OCC(=O)O)c2)NC(=O)CN(C)C(=O)[C@H]([C@@H](C)CC)NC(=O)[C@H](Cc2ccccc2)N(C)C(=O)[C@H](Cc2ccc(O)cc2)NC(=O)[C@H](Cc2c[nH]c3cc(O)ccc23)NC(=O)[C@H](C)NC(=O)CN(CCCOC)C(=O)CSC[C@H](C(N)=O)NC(=O)[C@H](Cc2ccccc2)N(C)C(=O)[C@H](C)N(C)C1=O [Myostatin_99_v418] ({CH2CO}-[Gly(N-(CH2)3OMe)]A[Trp(6-OH)]Y[NMeF]I[Sar][Phe(3-OCH2COOH)]Y(Me)R[NMeF][Gly(octyl)][NMeA][NMeF][dC]-NH2; thioether N-15) | – | – | – | IC50 (GDF-11; Method D: GDF-11 1.5 ng/mL): 29.6 nM; Selectivity (Myostatin [1]; Method D): 136.2; IC50 (Myostatin [2]; Method D: Myostatin 1.5 ng/mL): 0.22 nM
3 | CCCCCCC[C@@H]1NC(=O)[C@H](Cc2ccccc2)N(C)C(=O)[C@H](CCCNC(=N)N)NC(=O)[C@H](Cc2ccc(C(=O)O)cc2)NC(=O)[C@H](Cc2cccc(OCC(=O)O)c2)NC(=O)[C@H](C)N(C)C(=O)[C@H]([C@@H](C)CC)NC(=O)[C@H](Cc2ccccc2)N(C)C(=O)[C@H](Cc2ccc(O)cc2)NC(=O)[C@H](Cc2c[nH]c3ncccc23)NC(=O)[C@H](CO)NC(=O)CN(CCCC(=O)O)C(=O)CSC[C@H](C(=O)O)NC(=O)[C@H](Cc2ccccc2)N(C)C(=O)[C@H](C)N(C)C1=O [Myostatin_99_v164] ({CH2CO}-[Gly(N(CH2)3COOH)]S[Trp(7-aza)]Y[NMeF]I[NMeA][Phe(3-OCH2COOH)][Phe(4-COOH)]R[NMeF][X1][NMeA][NMeF][dC]-OH; thioether N-15) | 1340 | 320 | 4.2 | –
4 | CCCCCCCCCC[C@@H]1NC(=O)[C@H](Cc2ccccc2)N(C)C(=O)[C@H](CCCNC(=N)N)NC(=O)[C@H](Cc2ccc(C(=O)O)cc2)NC(=O)[C@H](Cc2cccc(OCC(=O)O)c2)NC(=O)CN(C)C(=O)[C@H]([C@@H](C)CC)NC(=O)[C@H](Cc2ccccc2)N(C)C(=O)[C@H](Cc2ccc(O)cc2)NC(=O)[C@H](Cc2c[nH]c3ccccc23)NC(=O)[C@H](C)NC(=O)[C@H](C)NC(=O)CSC[C@H](C(=O)N2CCC(CCC(N)=O)CC2)NC(=O)[C@H](Cc2ccccc2)N(C)C(=O)[C@H](CCC(=O)O)N(C)C1=O [Myostatin_99_v346] ({CH2CO}-AAWY[NMeF]I[Sar][Phe(3-OCH2COOH)][Phe(4-COOH)]R[NMeF][Gly(decyl)][NMeE][NMeF][dC]-{Piperidine(4-CH2CH2CONH2)}; thioether N-15) | – | – | – | IC50 (GDF-11; Method C: GDF-11 1 ng/mL): 10.5 nM; Selectivity (Myostatin [1]; Method C): 116.0; IC50 (Myostatin [2]; Method C: Myostatin 1.5 ng/mL): 0.09 nM
5 | CCCCCCC[C@@H]1NC(=O)[C@H](Cc2ccccc2)N(C)C(=O)[C@H](CCCNC(=N)N)NC(=O)[C@H](Cc2ccc(C(=O)O)cc2)NC(=O)[C@H](Cc2cccc(OCC(=O)O)c2)NC(=O)[C@H](C)N(C)C(=O)[C@H]([C@@H](C)CC)NC(=O)[C@H](Cc2ccccc2)N(C)C(=O)[C@H](Cc2ccc(O)cc2)NC(=O)[C@H](Cc2c[nH]c3ccccc23)NC(=O)[C@H](C)NC(=O)CN(CCCC(=O)O)C(=O)CSC[C@H](C(N)=O)NC(=O)[C@H](Cc2ccccc2)N(C)C(=O)[C@H](C)N(C)C1=O [Myostatin_99_v196] ({CH2CO}-[Gly(N(CH2)3COOH)]AWY[NMeF]I[NMeA][Phe(3-OCH2COOH)][Phe(4-COOH)]R[NMeF][X1][NMeA][NMeF][dC]-NH2; thioether N-15) | 603 | 177 | 3.4 | –
6 | CCCCCCC[C@@H]1NC(=O)[C@H](Cc2ccccc2)N(C)C(=O)[C@H](CCCNC(=N)N)NC(=O)[C@H](Cc2ccc(C(=O)O)cc2)NC(=O)[C@H](Cc2ccncc2)NC(=O)CN(C)C(=O)[C@H]([C@@H](C)CC)NC(=O)[C@H](Cc2ccccc2)N(C)C(=O)[C@H](Cc2ccc(O)cc2)NC(=O)[C@H](Cc2c[nH]c3ncccc23)NC(=O)[C@H](C)NC(=O)CN(CCCC(=O)O)C(=O)CSC[C@H](C(=O)O)NC(=O)[C@H](Cc2ccccc2)N(C)C(=O)[C@H](C)N(C)C1=O [Myostatin_99_v170] ({CH2CO}-[Gly(N(CH2)3COOH)]A[Trp(7-aza)]Y[NMeF]I[Sar][4Pal][Phe(4-COOH)]R[NMeF][X1][NMeA][NMeF][dC]-OH; thioether N-15) | 215 | 65 | 3.3 | –
7 | CCCCCCC[C@@H]1NC(=O)[C@H](Cc2ccccc2)N(C)C(=O)[C@H](CCCNC(=N)N)NC(=O)[C@H](Cc2ccc(C(=O)O)cc2)NC(=O)[C@H](Cc2cccc(OCC(=O)O)c2)NC(=O)CN(C)C(=O)[C@H]([C@@H](C)CC)NC(=O)[C@H](Cc2ccccc2)NC(=O)[C@H](Cc2ccc(O)cc2)NC(=O)[C@H](Cc2c[nH]c3ccccc23)NC(=O)[C@H](C)NC(=O)[C@H](C)NC(=O)CSC[C@H](C(=O)O)NC(=O)[C@H](Cc2ccccc2)N(C)C(=O)[C@H](C)N(C)C1=O [Myostatin_99_v209] ({CH2CO}-AAWYFI[Sar][Phe(3-OCH2COOH)][Phe(4-COOH)]R[NMeF][X1][NMeA][NMeF][dC]-OH; thioether N-15) | 794 | 147 | 5.4 | –
8 | CCCCCCCCCC[C@@H]1NC(=O)[C@H](Cc2ccccc2)N(C)C(=O)[C@H](CCCNC(=N)N)NC(=O)[C@H](Cc2ccc(C(=O)O)cc2)NC(=O)[C@H](Cc2cccc(OCC(=O)O)c2)NC(=O)CN(CC)C(=O)[C@H]([C@@H](C)CC)NC(=O)[C@H](Cc2ccccc2)N(C)C(=O)[C@H](Cc2ccc(O)cc2)NC(=O)[C@H](Cc2c[nH]c3cc(O)ccc23)NC(=O)[C@H](C)NC(=O)[C@H](C)NC(=O)CSC[C@H](C(=O)N2CCC(CCC(N)=O)CC2)NC(=O)[C@H](Cc2ccccc2)N(C)C(=O)[C@H](CCC(=O)O)N(C)C1=O [Myostatin_99_v383] ({CH2CO}-AA[Trp(6-OH)]Y[NMeF]I[NEtG][Phe(3-OCH2COOH)][Phe(4-COOH)]R[NMeF][Gly(decyl)][NMeE][NMeF][dC]-{Piperidine(4-CH2CH2CONH2)}; thioether N-15) | – | – | – | IC50 (GDF-11; Method D: GDF-11 1.5 ng/mL): 40.5 nM; Selectivity (Myostatin [1]; Method D): 220.797; IC50 (Myostatin [2]; Method D: Myostatin 1.5 ng/mL): 0.18 nM
9 | CCCCCCC[C@@H]1NC(=O)[C@H](Cc2ccccc2)N(C)C(=O)[C@H](CCCNC(=N)N)NC(=O)[C@H](Cc2ccc(C(=O)O)cc2)NC(=O)[C@H](Cc2cccc(OCC(=O)O)c2)NC(=O)CN(C)C(=O)[C@H]([C@@H](C)CC)NC(=O)[C@H](Cc2ccccc2)N(C)C(=O)[C@H](Cc2ccc(O)cc2)NC(=O)[C@H](Cc2c[nH]c3ccccc23)NC(=O)[C@H](C)NC(=O)[C@H](C)NC(=O)CSC[C@@H](C(=O)O)NC(=O)[C@H](Cc2ccccc2)N(C)C(=O)[C@H](C)N(C)C1=O [Myostatin_99_v215] ({CH2CO}-AAWY[NMeF]I[Sar][Phe(3-OCH2COOH)][Phe(4-COOH)]R[NMeF][X1][NMeA][NMeF]C-OH; thioether N-15) | 202 | 106 | 1.9 | –
